Assay results: PubChem BioAssay AID1200 (NMMLSC, 2008)
Active and inactive are the calls of the source. How the calls were made is not given here.

Test system: not listed separately
Assay: cell killing in prostate cells – flow cytometry event count, cytotoxicity control for prostate cell differentiation activator project, dose response (AID 1200)
Conditions: prostate cells, cell count (flow cytometry events), cytotoxicity; at 30 µM (top of the series)
For O=c1cc(-c2ccccc2)[nH]c2ccccc12, the cell count (% of control) was 105% (inactive). With COc1ccc(-c2noc(CCC(=O)NCCCN3CCC(Cc4ccccc4)CC3)n2)cc1 the cell count (% of control) was 276% (inactive). In the case of CCOc1ccc(NC(=O)COc2nsnc2N2CCCCC2)cc1, the cell count (% of control) is reported as 226% (inactive). For CCN(CCNC(=O)C1CCN(Cc2nc(-c3ccc(Cl)cc3)oc2C)CC1)c1ccccc1, the cell count (% of control) was 22% (inactive). With CCN(CCNC(=O)C1CCN(Cc2nc(-c3cccc(Cl)c3)oc2C)CC1)c1ccccc1 the cell count (% of control) was 141% (inactive). In the case of Cc1cc(C)nc(N2CCC(C(=O)Nc3ccc(Oc4ccccc4)cc3)CC2)n1, the cell count (% of control) is reported as 264% (inactive). For Cc1ccccc1CS(=O)(=O)CCC(=O)NCCCN1CCN(c2ccccc2F)CC1, the cell count (% of control) was 854% (inactive). In the case of Cc1nc2ncnn2c(C)c1CCC(=O)NCCCN1CCN(c2cccc(Cl)c2)CC1, the cell count (% of control) is reported as 1150% (inactive). In the case of Cc1cc(N2CCN(C)CC2)nc2ccc(NC(=O)c3ccc4c(c3)OCO4)cc12, the cell count (% of control) is reported as 102% (inactive). With N=c1n(CCN2CCCCC2)c2ccccc2n1CC(O)COc1ccccc1 (centres undefined) the cell count (% of control) was 311% (inactive). In the case of O=C(Cn1cc2c(n1)CCCC2)NCCCN1CCN(c2ccccc2F)CC1, the cell count (% of control) is reported as 382% (inactive). For Clc1ccc(COC(Cn2ccnc2)c2ccc(Cl)cc2Cl)cc1 (centres undefined), the cell count (% of control) was 350% (inactive). With Cc1ccc(Nc2cc(=O)n(C3CCCCC3)c(=O)[nH]2)cc1C the cell count (% of control) was 196% (inactive). For COc1ccc(-c2noc(-c3cc(Cl)ccc3Cl)n2)cc1OC, the cell count (% of control) was 347% (inactive). In the case of C[C@H]1CCC/C=C/C2C[C@H](O)CC2[C@H](O)/C=C/C(=O)O1 (some centres undefined), the cell count (% of control) is reported as 129% (inactive). In the case of CCOc1cccc2cc(-c3cn4cc(C)ccc4n3)c(=O)oc12, the cell count (% of control) is reported as 44.8% (inactive). With Cn1c(=O)[nH]c(=O)c2c1nc(Br)n2CCCSc1nc2ccccc2o1 the cell count (% of control) was 227% (inactive). For COc1ccccc1NC(=O)c1nc[nH]c1C(=O)Nc1ccccc1OC, the cell count (% of control) was 546% (inactive). With COc1ccc(N2CCN(CCCNC(=O)CCCn3c(=O)[nH]c4ccsc4c3=O)CC2)cc1 the cell count (% of control) was 330% (inactive). In the case of Cc1ccc(CNc2nc3ccccc3n3nnnc23)cc1, the cell count (% of control) is reported as 348% (inactive). In the case of CCn1c(=N)n(CC(O)COc2cccc(C)c2)c2ccccc21 (centres undefined), the cell count (% of control) is reported as 266% (inactive).

Test system: prostate cells, cell count (flow cytometry events), cytotoxicity
Assay: as above
Conditions: not given
In the case of Cc1oc(-c2ccc(Cl)cc2)nc1CN1CCC(C(=O)NCCCN2CCOCC2)CC1, the EC50 is reported as 17.8 µM (inactive). Cc1ccc2c(c1)-c1c(cnn1CC(=O)Nc1ccccc1N1CCN(C)CC1)CO2 gave an EC50 of 9.77 µM. With Cn1nc(-c2ccc(Cl)cc2)c2cc(C(=O)NCCCN3CCOCC3)sc21 the EC50 was 10.1 µM (inactive). With Cn1c(=O)cc(OCC(=O)NCCCN2CCN(c3ccccc3F)CC2)c2ccccc21 the EC50 was 14 µM (inactive). For CCCS(=O)(=O)N1CCCC(C(=O)NCCCN2CCN(c3ccc(F)cc3)CC2)C1 (centres undefined), the EC50 was 0.328 µM (inactive). In the case of COC(=O)c1cc(-c2ccccc2)sc1NC(=O)c1cc(C)on1, the EC50 is reported as 0.326 µM (inactive). With CC1CCCCN1CCNC(=O)c1ccc2c(=O)n(CCc3ccccc3)c(=O)[nH]c2c1 (centres undefined) the EC50 was 10.5 µM (inactive). Compound CCOC(=O)c1c(C)[nH]c(C(=O)COC(=O)C2CC2C)c1C (centres undefined) has an EC50 of 0.441 µM. CCN1CCCC1CNC(=O)C1CCN(Cc2nc(-c3cccc(Br)c3)oc2C)CC1 (centres undefined) showed an EC50 of 1.14 µM. In the case of COc1ccc(N2CCN(CCCNC(=O)c3cc4sccc4n3C)CC2)cc1, the EC50 is reported as 10.1 µM (inactive). COc1ccc(Nc2nc(N)nc(CN3CCC(Cc4ccccc4)CC3)n2)cc1 gave an EC50 of 2.46 µM. In the case of COc1ccc2cc3cc(C(=O)Nc4ccccc4N4CCN(C)CC4)oc3nc2c1, the EC50 is reported as 2.06 µM. With Cc1ccccc1-c1nc(CN2CCC(C(=O)NCCCN3CCOCC3)CC2)c(C)o1 the EC50 was 3.44 µM (inactive). In the case of COc1ccccc1N1CCN(c2nc3ccccc3nc2C(C#N)C(=O)OC(C)C)CC1 (centres undefined), the EC50 is reported as 9.78 µM (inactive). With CCOc1ccc(-c2cc(C(=O)NCCCN3CCN(CC)CC3)c3ccccc3n2)cc1 the EC50 was 11.1 µM (inactive). For COc1ccc(CCn2c(=N)c(C(=O)NCc3ccco3)cc3c(=O)n4ccccc4nc32)cc1, the EC50 was 10.2 µM (inactive). For COc1ccc(N2CCN(CCCNC(=O)CC3Oc4ccc(C)cc4NC3=O)CC2)cc1 (centres undefined), the EC50 was 3.54 µM (inactive). In the case of CCN(CC)CC(=O)Nc1ccc(-c2nc3cc(NC(=O)CN(CC)CC)ccc3o2)cc1, the EC50 is reported as 8.06 µM. O=C(NCCCN1CCN(c2cccc(Cl)c2)CC1)c1cccc(N2CCCC2=O)c1 showed an EC50 of 11.2 µM. Work on CN(CC(O)COc1ccc(OCC(O)CN(C)C2CCCCC2)cc1)C1CCCCC1 (centres undefined) yielded an EC50 of 0.424 µM. Compound Cc1ccccc1-c1nc(CN2CCC(C(=O)NCc3cccnc3)CC2)c(C)o1 has an EC50 of 1.99 µM. With CCN1CCN(c2cc(C)c3cc(NC(=O)c4ccc(Br)o4)ccc3n2)CC1 the EC50 was 3.98 µM. For CCOC(=O)c1c(C)n(C)c2ccc(OCC(O)CNC(CC)CO)cc12 (centres undefined), the EC50 was 10.9 µM (inactive). With O=S1(=O)C=C(Sc2nc3ccccc3s2)c2ccccc21 the EC50 was 0.959 µM. For CC(C)(C)c1ccc(C(O)CCCN2CCC(C(O)(c3ccccc3)c3ccccc3)CC2)cc1 (centres undefined), the EC50 was 0.00318 µM (inactive). For CCOc1ccccc1NC(=O)c1nc[nH]c1C(=O)Nc1ccccc1OCC, the EC50 was 3.26 µM (inactive). In the case of CN(C)c1ccc(CNC2CC(C)(C)NC(C)(C)C2)cc1, the EC50 is reported as > 30 µM (inactive). In the case of CN1CCN(c2cc3c(c4c2[nH]c2ccccc24)C(=O)CC(C)(C)C3)CC1, the EC50 is reported as 4.6 µM. With Cn1c(=O)cc(SCC(=O)NCCCN2CCN(c3ccccc3F)CC2)c2ccccc21 the EC50 was 1.17 µM. In the case of CCn1c(=O)cc(SCC(=O)NCCN2CCN(Cc3ccccc3)CC2)c2ccccc21, the EC50 is reported as 14.5 µM (inactive). Work on COc1ccc(-c2oc3ncn(CCN4CCOCC4)c(=N)c3c2-c2ccc(OC)cc2)cc1 yielded an EC50 of 3.2 µM. In the case of COc1cc2nc(N3CCN(C(=O)C4COc5ccccc5O4)CC3)nc(N)c2cc1OC (centres undefined), the EC50 is reported as 9.6 µM (inactive). COc1ccccc1N1CCN(Cc2cc(Br)c(O)c3ncccc23)CC1 showed an EC50 of 1.09 µM. Work on Cn1nc(-c2ccc(Cl)cc2)c2cc(C(=O)NCCCN3CCCC3)sc21 yielded an EC50 of 4.21 µM. Cn1c(C(=O)NCCCN2CCN(c3cccc(Cl)c3)CC2)cc2c(=O)n(C)c3ccccc3c21 gave an EC50 of 5.27 µM. With O=C(c1ccccc1)c1ccc(N2CCNCC2)cc1 the EC50 was > 30 µM (inactive). Cc1ccccc1-c1nc(CN2CCC(C(=O)NCCCN3CC(C)CC(C)C3)CC2)c(C)o1 (centres undefined) gave an EC50 of 2.11 µM. In the case of Nc1ccc(-n2ccnc2)cc1, the EC50 is reported as 1.04 µM (inactive). With COc1ccc(-c2cc(C(F)(F)F)nc(N3CCN(Cc4ccccc4)CC3)n2)cc1OC the EC50 was 9.88 µM (inactive). With CCN1CCN(C(c2cccs2)C(C)NS(=O)(=O)c2ccc(Br)cc2)CC1 (centres undefined) the EC50 was 10.1 µM (inactive). For Cc1ccccc1-c1nc(CN2CCC(C(=O)NCCCN3CCCC3)CC2)c(C)o1, the EC50 was 0.358 µM (inactive). For O=C(NCCCN1CCN(c2ccc(F)cc2)CC1)c1cccc(N2CCCC2=O)c1, the EC50 was 0.441 µM (inactive). With CN(CCNC(=O)C1CC(=O)N(c2ccc(F)c(Cl)c2)C1)Cc1ccccc1 (centres undefined) the EC50 was 27.5 µM (inactive). With CCCOc1ccccc1C1CC(=O)Nc2cc3c(cc21)OCO3 (centres undefined) the EC50 was 0.373 µM (inactive). In the case of Cc1ccccc1-c1nc(CN2CCCC(C(=O)NCCCN3CCOCC3)C2)c(C)o1 (centres undefined), the EC50 is reported as 13.9 µM (inactive). With CCN(CC)CCNC(=O)c1cc2c(-c3ccc(Cl)cc3)nn(C)c2s1 the EC50 was 3.88 µM. With Cc1cc2c(=O)n(CC(=O)N3CCN(c4ccccc4)CC3)cnc2s1 the EC50 was 0.0344 µM (inactive). For CCN(CC)CCCNC(=O)c1cc2c(-c3ccc(Cl)cc3)nn(C)c2s1, the EC50 was 2.64 µM. In the case of Cc1cccc(-c2nsc(SCC(=O)Nc3nccs3)n2)c1, the EC50 is reported as 3.45 µM (inactive). Compound Cc1cc(N2CCN(C)CC2)nc2ccc(NC(=O)c3ccc(Br)o3)cc12 has an EC50 of 8.72 µM. With CN1CCN(CCCNC(=O)c2cc3c(-c4ccc(Cl)cc4)nn(C)c3s2)CC1 the EC50 was 4.25 µM. CCN(CC)CCNC(=O)c1ccc(N2CCCCC2)c(NS(=O)(=O)c2ccc(C)cc2)c1 showed an EC50 of 0.145 µM. Cc1ccc(C)c(N2CCN(CCCNC(=O)Cn3cc4c(n3)CCCCC4)CC2)c1 showed an EC50 of 11.1 µM. In the case of CCn1c(=O)cc(SCC(=O)NCCCN2CCN(c3ccccc3F)CC2)c2ccccc21, the EC50 is reported as 15.6 µM (inactive). For COc1ccc(CCN2CCC(Nc3nc4ccccc4n3Cc3ccc(F)cc3)CC2)cc1, the EC50 was 7.83 µM (inactive). Cc1oc(-c2ccc(Cl)cc2)nc1CN1CCC(C(=O)N2CCN(Cc3ccccc3)CC2)CC1 gave an EC50 of 3.29 µM. Compound CCc1ccc(-c2nc(CN3CCC(C(=O)NCc4ccc(F)cc4)CC3)c(C)o2)cc1 has an EC50 of 1.8 µM. In the case of CCN1CCN(c2ncc(C(=O)Nc3cc(Cl)c(OC)cc3OC)c3ccccc23)CC1, the EC50 is reported as 2.94 µM. In the case of CCOC(=O)c1ccccc1NC(=O)Cn1c(-c2nonc2N)nc2ccccc21, the EC50 is reported as 0.137 µM. Cc1ccc(Cl)cc1N1CCN(C(=O)c2cc3c(=O)n(C)c4ccccc4c3n2C)CC1 showed an EC50 of 0.155 µM. CC1CCCCN1CCNC(=O)c1cc2c(-c3ccccc3F)nn(C)c2s1 (centres undefined) gave an EC50 of 8.61 µM. CC(C)N1CCC2(CC1)N=C(c1ccc3c(c1)OCO3)CC(c1cc(Cl)ccc1O)N2 (centres undefined) gave an EC50 of 1.86 µM. Work on Cc1ccc(OCC(O)Cn2c(=N)n(CCN3CCCCC3)c3ccccc32)cc1 (centres undefined) yielded an EC50 of 3.48 µM. With CCOC(=O)c1[nH]c(C)c(C(=O)N2CCc3ccccc32)c1C the EC50 was 0.139 µM. In the case of CCCc1cc(-c2n[nH]c(C)c2-c2ccc(C(=O)OCC)o2)c(O)cc1O, the EC50 is reported as 3.64 µM (inactive). Oc1c(CN2CCCCC2)cc(COCc2ccccc2)c2cccnc12 gave an EC50 of 2.96 µM. CCCN(CCC)CCNC(=O)C1CCN(Cc2nc(-c3ccc(Cl)cc3)oc2C)CC1 showed an EC50 of 6.46 µM. Work on CN(C)CCCN1c2ccccc2CCc2ccc(Cl)cc21 yielded an EC50 of 5.46 µM. Compound CCN1CCCC1CNC(=O)c1cc2c(-c3ccc(Cl)cc3)nn(C)c2s1 (centres undefined) has an EC50 of 4.83 µM. For COc1ccc(-c2ccc(-c3noc(-c4ccccc4)n3)c(OC)n2)cc1, the EC50 was 3.16 µM (inactive). With COc1ccc(Cc2nc(-c3ccc(-n4cccc4)cc3)no2)cc1OC the EC50 was 3.01 µM (inactive). With CCN1CCN(CCNC(=O)C2CCN(Cc3nc(-c4ccc(Cl)cc4)oc3C)CC2)CC1 the EC50 was 8.88 µM (inactive). For O=C(CCN1C(=O)COc2ccccc21)NCCCN1CCN(c2ccc(F)cc2)CC1, the EC50 was > 30 µM (inactive).
